Literature values as cited in patent US20240229143A1, “FORMULATION OF PEPTIDE IMMUNOTHERAPIES” (priority 2020, published 2024).

Legend:
[1] = single amino acid; octanol:water
[2] = single amino acid
[3] = single amino acid; remark: listed apart in the source

Structure (SMILES) | Log P [1] | pl [2] | Log D7.4 [3]
NC(=O)C[C@H](N)C(=O)O [Asparagine (Asn)] | −3.41 | 5.41 | −0.98
N[C@@H](Cc1ccc(O)cc1)C(=O)O [Tyrosine (Tyr)] | – | 5.66 | –
N[C@@H](Cc1ccccc1)C(=O)O [Phenylalanine (Phe)] | −1.63 | 5.48 | 1.16
NCCCC[C@H](N)C(=O)O [Lysine (Lys)] | −4.44 | 9.74 | −2.27
CC(C)C[C@H](N)C(=O)O [Leucine (Leu)] | −1.61 | – | –
CSCC[C@H](N)C(=O)O [Methionine (Met)] | −1.84 | 5.74 | 0.51
N[C@@H](Cc1c[nH]cn1)C(=O)O [Histidine (His)] | −3.56 | 7.59 | −0.44
N[C@@H](Cc1c[nH]c2ccccc12)C(=O)O [Tryptophan (Trp)] | −1.75 | 5.89 | 1.46
C[C@@H](O)[C@H](N)C(=O)O [Threonine (Thr)] | −2.92 | 5.60 | −0.26
N=C(N)NCCC[C@H](N)C(=O)O [Arginine (Arg)] | – | 10.76 | −1.65
CC(C)[C@H](N)C(=O)O [Valine (Val)] | −2.08 | 5.96 | 0.32
C[C@H](N)C(=O)O [Alanine (Ala)] | −2.89 | 6.00 | −0.27
N[C@@H](CO)C(=O)O [Serine (Ser)] | – | 5.68 | –
NC(=O)CC[C@H](N)C(=O)O [Glutamine (Gln)] | −3.24 | – | –
N[C@@H](CS)C(=O)O [Cysteine (Cys)] | – | 5.07 | –
O=C(O)[C@@H]1CCCN1 [Proline (Pro)] | −2.50 | 6.30 | 0.15
N[C@@H](CC(=O)O)C(=O)O [Asparic Acid (Asp)] | −3.38 | 2.77 | −2.06
NCC(=O)O [Glycine (Gly)] | −3.25 | 5.97 | −0.22
CC[C@H](C)[C@H](N)C(=O)O [Isoleucine (Ile)] | −1.72 | 6.20 | 0.69
N[C@@H](CCC(=O)O)C(=O)O [Glutamic Acid (Glu)] | −2.94 | 3.22 | −2.19
